pIC50, pKi: −log10 of the molar value.
Experiments:
[1] = (§1) Drug metabolism in human liver microsomes assessed as CYP3A5*1/*1-mediated (2S,3S,4S,5R,6S)-6-(2-(4-(4-(tert-butylcarbamoyl)-2-(2-chloro-4-cyclopropylphenylsulfonamido)phenoxy)-5-chloro-2-fluorophenyl)acetoxy)-3,4,5-trihydroxytetrahydro-2H-pyran-2-carboxylic acid formation after 15 mins by LC-MS/MS analysis in presence of UDPGA and NADPH; format: ADME; conditions: 0.25 h
[2] = as §1, with “[…]-mediated” for “CYP3A5*1/*1-mediated”; format: ADME; conditions: 0.25 h
Liver microsome [3] = test: Drug metabolism in human liver microsomes assessed as 2-(4-(4-(tert-butylcarbamoyl)-2-(2-chloro-4-(1-hydroxycyclopropyl)phenylsulfonamido)phenoxy)-5-chloro-2-fluorophenyl)acetic acid formation at 2 uM after 60 mins by LC-MS/MS analysis in presence of montelukast; format: ADME; conditions: 1 h
[4] = molecular target: T1, UDP-glucuronosyltransferase 1A4 (Homo sapiens, UniProt P22310); test: (§2) Drug metabolism assessed as human recombinant UGT1A4-mediated (2S,3S,4S,5R,6S)-6-(2-(4-(4-(tert-butylcarbamoyl)-2-(2-chloro-4-cyclopropylphenylsulfonamido)phenoxy)-5-chloro-2-fluorophenyl)acetoxy)-3,4,5-trihydroxytetrahydro-2H-pyran-2-carboxylic acid formation at 10 uM after 30 mins by LC-MS/MS analysis; format: ADME; conditions: recombinant enzyme, 0.5 h
T1 sequence (P22310 whole entry): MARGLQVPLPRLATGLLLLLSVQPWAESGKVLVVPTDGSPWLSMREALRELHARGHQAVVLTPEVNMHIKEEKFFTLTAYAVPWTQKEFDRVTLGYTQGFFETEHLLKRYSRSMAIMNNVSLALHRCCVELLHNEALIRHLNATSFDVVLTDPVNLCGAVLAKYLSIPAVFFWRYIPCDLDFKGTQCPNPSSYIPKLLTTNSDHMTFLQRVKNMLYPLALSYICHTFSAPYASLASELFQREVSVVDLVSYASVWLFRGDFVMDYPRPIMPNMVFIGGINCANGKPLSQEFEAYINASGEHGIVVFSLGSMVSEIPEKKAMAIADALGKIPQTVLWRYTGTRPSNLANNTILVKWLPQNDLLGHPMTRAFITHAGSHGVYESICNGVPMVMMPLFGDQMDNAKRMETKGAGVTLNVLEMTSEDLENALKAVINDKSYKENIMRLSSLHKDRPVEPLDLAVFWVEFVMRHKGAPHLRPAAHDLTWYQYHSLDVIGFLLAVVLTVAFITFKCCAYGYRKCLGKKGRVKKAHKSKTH

Liver microsome [5] = test: Drug metabolism in human liver microsomes assessed as 2-(5-chloro-4-(2-(2-chloro-4-cyclopropylphenylsulfonamido)-4-(1-hydroxy-2-methylpropan-2-ylcarbamoyl)phenoxy)-2-fluorophenyl)acetic acid formation at 2 uM after 60 mins by LC-MS/MS analysis in presence of montelukast; format: ADME; conditions: 1 h
[6] = molecular target: UDP-glucuronosyltransferase 1A7 (Homo sapiens, UniProt Q9HAW7); test: as §2, with “UGT1A7-mediated” for “UGT1A4-mediated”; format: ADME; conditions: recombinant enzyme, 0.5 h
Sequence of UDP-glucuronosyltransferase 1A7 (Q9HAW7 whole entry): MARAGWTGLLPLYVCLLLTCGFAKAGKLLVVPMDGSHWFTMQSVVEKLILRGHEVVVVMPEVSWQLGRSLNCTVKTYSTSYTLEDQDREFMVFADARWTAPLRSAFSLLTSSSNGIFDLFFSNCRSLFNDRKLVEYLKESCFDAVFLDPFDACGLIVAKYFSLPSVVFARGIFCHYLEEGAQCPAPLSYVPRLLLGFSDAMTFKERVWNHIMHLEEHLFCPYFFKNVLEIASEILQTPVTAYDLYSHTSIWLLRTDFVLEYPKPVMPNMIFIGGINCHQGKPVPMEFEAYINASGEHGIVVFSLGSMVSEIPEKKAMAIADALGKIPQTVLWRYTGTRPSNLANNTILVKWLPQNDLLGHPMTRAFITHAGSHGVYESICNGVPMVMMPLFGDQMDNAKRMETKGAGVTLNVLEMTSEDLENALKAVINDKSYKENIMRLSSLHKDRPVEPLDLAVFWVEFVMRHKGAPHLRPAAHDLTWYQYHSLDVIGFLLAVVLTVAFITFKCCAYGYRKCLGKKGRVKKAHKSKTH

Cytochrome P450 2C8 [7] = molecular target: T2, Cytochrome P450 2C8 (Homo sapiens, UniProt P10632); test: Inhibition of CYP2C8 in human liver microsomes assessed as paclitaxel 6-hydroxylation after 5 to 30 mins by LC-MS/MS analysis; format: ADME
T2 sequence (P10632 whole entry): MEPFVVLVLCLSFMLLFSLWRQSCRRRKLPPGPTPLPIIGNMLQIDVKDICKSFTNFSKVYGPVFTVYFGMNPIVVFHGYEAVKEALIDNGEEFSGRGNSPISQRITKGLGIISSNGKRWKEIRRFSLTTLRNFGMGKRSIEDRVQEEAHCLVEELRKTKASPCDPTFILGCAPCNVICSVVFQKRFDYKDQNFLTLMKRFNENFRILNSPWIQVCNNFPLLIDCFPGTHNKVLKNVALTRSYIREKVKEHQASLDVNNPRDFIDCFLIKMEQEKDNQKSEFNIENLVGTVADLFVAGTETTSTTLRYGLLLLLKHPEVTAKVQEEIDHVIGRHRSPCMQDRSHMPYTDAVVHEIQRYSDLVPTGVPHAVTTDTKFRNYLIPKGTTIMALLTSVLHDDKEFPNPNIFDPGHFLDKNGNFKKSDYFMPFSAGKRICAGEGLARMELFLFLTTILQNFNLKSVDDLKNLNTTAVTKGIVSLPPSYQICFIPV

[8] = Fraction unbound in plasma (unknown origin); format: ADME, cell-free
Cytochrome P450 2C8 [9] = molecular target: T2, Cytochrome P450 2C8; test: Drug metabolism assessed as recombinant CYP2C8 (unknown origin)-mediated 2-(5-chloro-4-(2-(2-chloro-4-cyclopropylphenylsulfonamido)-4-(1-hydroxy-2-methylpropan-2-ylcarbamoyl)phenoxy)-2-fluorophenyl)acetic acid formation at 10 uM after 30 mins by LC-MS/MS analysis; format: ADME; conditions: recombinant enzyme, 0.5 h
CYP1A2 = CYP1A2 (Homo sapiens, UniProt P05177); test: Induction of CYP1A2 in human hepatocytes using phenacetin as substrate at 0.3 to 30 uM treated every 24 hrs for 2 days measured on day 5 by LC-MS/MS analysis relative to control; format: ADME, cell-based, Hepatocyte; conditions: probe phenacetin, read-out: FC
Sequence of CYP1A2 (P05177 whole entry): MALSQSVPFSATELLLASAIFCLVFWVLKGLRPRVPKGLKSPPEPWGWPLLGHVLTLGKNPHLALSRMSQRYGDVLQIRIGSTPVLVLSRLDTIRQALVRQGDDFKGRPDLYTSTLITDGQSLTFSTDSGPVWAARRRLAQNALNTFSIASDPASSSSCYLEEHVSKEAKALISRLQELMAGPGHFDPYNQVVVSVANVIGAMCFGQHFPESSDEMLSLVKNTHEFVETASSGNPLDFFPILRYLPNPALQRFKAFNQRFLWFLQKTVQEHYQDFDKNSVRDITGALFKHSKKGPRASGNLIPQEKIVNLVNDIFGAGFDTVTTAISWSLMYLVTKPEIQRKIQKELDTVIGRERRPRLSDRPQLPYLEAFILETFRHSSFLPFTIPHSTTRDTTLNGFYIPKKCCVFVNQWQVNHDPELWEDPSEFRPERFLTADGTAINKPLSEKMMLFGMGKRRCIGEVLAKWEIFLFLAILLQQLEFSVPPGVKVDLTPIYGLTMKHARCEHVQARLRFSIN

Cytochrome P450 2C8 [10] = molecular target: T2, Cytochrome P450 2C8; test: Competitive inhibition of CYP2C8 in human liver microsomes assessed as paclitaxel 6-hydroxylation after 20 mins by LC-MS/MS analysis; format: ADME
Liver microsome [11] = test: Drug metabolism in human liver microsomes assessed as 2-(4-(4-(tert-butylcarbamoyl)-2-(2-chloro-4-(1-hydroxycyclopropyl)phenylsulfonamido)phenoxy)-5-chloro-2-fluorophenyl)acetic acid formation at 2 uM after 60 mins by LC-MS/MS analysis in presence of ketoconazole; format: ADME; conditions: 1 h
[12] = molecular target: T3, UDP-glucuronosyltransferase 1A3 (Homo sapiens, UniProt P35503); test: Drug metabolism assessed as human recombinant UGT1A3-mediated compound formation treated with AMG 853 after 45 mins by LC-MS/MS analysis in presence of UDPGA; format: ADME; conditions: recombinant enzyme, 0.75 h
T3 sequence (P35503 whole entry): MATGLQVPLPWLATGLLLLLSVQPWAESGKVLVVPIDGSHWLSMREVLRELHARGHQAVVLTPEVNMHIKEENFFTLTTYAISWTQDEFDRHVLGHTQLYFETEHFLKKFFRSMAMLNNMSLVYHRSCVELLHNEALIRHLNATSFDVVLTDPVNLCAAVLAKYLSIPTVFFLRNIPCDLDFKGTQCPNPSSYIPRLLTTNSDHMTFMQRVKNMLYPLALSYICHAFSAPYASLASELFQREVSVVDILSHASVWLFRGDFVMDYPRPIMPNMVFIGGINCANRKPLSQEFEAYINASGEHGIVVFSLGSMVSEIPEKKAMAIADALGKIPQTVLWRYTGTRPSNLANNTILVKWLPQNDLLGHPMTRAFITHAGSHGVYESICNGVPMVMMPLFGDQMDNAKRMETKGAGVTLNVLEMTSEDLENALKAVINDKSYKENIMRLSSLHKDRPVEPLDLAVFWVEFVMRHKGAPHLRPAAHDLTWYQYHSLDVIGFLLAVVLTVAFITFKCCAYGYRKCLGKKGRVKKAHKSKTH

[13] = molecular target: T1, UDP-glucuronosyltransferase 1A4; test: Drug metabolism assessed as human recombinant UGT1A4-mediated compound formation treated with AMG 853 at 10 uM after 30 mins by LC-MS/MS analysis; format: ADME; conditions: recombinant enzyme, 0.5 h
Cytochrome P450 2C8 [14] = molecular target: T2, Cytochrome P450 2C8; test: Linear mixed inhibition of CYP2C8 in human liver microsomes assessed as paclitaxel 6-hydroxylation after 20 mins by LC-MS/MS analysis; format: ADME

| Drug metabolism (Liver microsome [3]) | Drug metabolism (Liver microsome [5]) | pIC50 (Cytochrome P450 2C8 [7]) | fraction unbound [8] | Drug metabolism (Cytochrome P450 2C8 [9]) | fold induction at 48 h, up to 30 µM (CYP1A2) | pKi (Cytochrome P450 2C8 [10]) | Drug metabolism (Liver microsome [11]) | S50 [12] [µM] | Vmax [12] [pmol/min/mg] | Drug metabolism [13] | pKi (Cytochrome P450 2C8 [14]) | SMILES | Drug metabolism [1] | Drug metabolism [2] | Drug metabolism [4] | Drug metabolism [6] |
| --- | --- | --- | --- | --- | --- | --- | --- | --- | --- | --- | --- | --- | --- | --- | --- | --- |
| metabolite_not_detected | metabolite_not_detected | 5.27 | 0.003 | metabolite_detected | 1.4 | 5.96 | metabolite_not_detected | – | – | – | – | CC(C)(C)NC(=O)c1ccc(Oc2cc(F)c(CC(=O)O)cc2Cl)c(NS(=O)(=O)c2ccc(C3CC3)cc2Cl)c1 [VIDUPIPRANT] | metabolite_not_detected | metabolite_not_detected | metabolite_detected | metabolite_not_detected |
| – | – | – | – | – | – | – | – | 379.2 | 39.1 | metabolite_detected | 5.57 | CC(C)(C)NC(=O)c1ccc(Oc2cc(F)c(CC(=O)O[C@@H]3O[C@H](C(=O)O)[C@@H](O)[C@H](O)[C@H]3O)cc2Cl)c(NS(=O)(=O)c2ccc(C3CC3)cc2Cl)c1 | – | – | – | – |

— ChEMBL document CHEMBL3526017, “Predicting the drug interaction potential of AMG 853, a dual antagonist of the D-prostanoid and chemoattractant receptor-homologous molecule expressed on T helper 2 cells receptors” (Drug Metab Dispos, 2012)
